For 43 molecules, IC50 results are on record in patent US7868006B2, “Heterocyclic substituted piperazines with CXCR3 antagonist activity” (Schering Corporation, priority 2005, dated 2011).

The IC50 is the concentration that gives 50% inhibition.

In one assay the target is T1, human CXCR3 (N-delta 4) (Homo sapiens, UniProt P49682).
T1 construct: CD8 leader (N); Flag tag (N); expressed in transfected cells; host or cells: mouse pro-B Ba/F3 cells, stably transfected with pME18Sneo-hCXCR3 (N-delta 4); membrane preparation
T1 sequence (P49682 5-368 limits assumed): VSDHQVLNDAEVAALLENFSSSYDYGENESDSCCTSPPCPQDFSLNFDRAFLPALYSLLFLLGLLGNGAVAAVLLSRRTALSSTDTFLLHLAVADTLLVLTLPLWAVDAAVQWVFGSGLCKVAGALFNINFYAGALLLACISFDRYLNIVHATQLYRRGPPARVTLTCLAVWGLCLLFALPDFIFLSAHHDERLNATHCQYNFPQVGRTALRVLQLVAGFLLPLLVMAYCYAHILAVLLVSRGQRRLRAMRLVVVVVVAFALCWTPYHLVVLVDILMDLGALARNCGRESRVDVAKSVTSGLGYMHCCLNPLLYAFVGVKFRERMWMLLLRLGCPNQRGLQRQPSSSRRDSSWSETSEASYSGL
Nature of the assay: Human CXCR3 (N-delta 4) Scintillation Proximity Assay (SPA), [125I] IP-10 binding. Particulars: Ba/F3-hCXCR3 (N-delta 4) membranes, 25 pM [125I] IP-10; read-out: IC50 value. From the text:
The inventive compounds can readily be evaluated to determine activity at The CXCR3 receptors by known methods, such as, for example, Development of Human CXCR3 (N-delta 4) Binding Assay.
Cloning and Expression of Human CXCR3 (N-delta 4):
The DNA encoding human CXCR3 was cloned by PCR using human genomic DNA (Promega, Madison, Wis.) as a template. The PCR primers were designed based on the published sequence of human orphan receptor GPR9 (1) with incorporated restriction sites, a Kozak consensus sequence, CD8 leader and Flag tag. The PCR product was subcloned into the mammalian expression vector pME18Sneo, a derivative of the SR-alpha expression vector (designated as pME18Sneo-hCXCR3 (N-delta 4).
IL-3-dependent mouse pro-B cells Ba/F3 were transfected by electroporation in 0.4 ml Dulbecco's PBS containing 4×10^6 cells with 20 μg of pME18Sneo-hCXCR3 (N-delta 4) plasmid DNA. Cells were pulsed at 400 Volts, 100 OHMs, 960 μFd. The transfected cells were under selection with 1 mg/ml G418 (Life Technologies, Gaithersburg, Md.). G418-resistant Ba/F3 clones were screened for CXCR3 expression by specific binding of [^125I] IP-10 (NEN Life Science Products, Boston, Mass.).
Preparation of Ba/F3-hCXCR3 (N-delta 4) Membranes:
Ba/F3 cells expressing human CXCR3 (N-delta 4) were pelleted and resuspended in the lysis buffer containing 10 mM HEPES, pH 7.5 and Complete® protease inhibitors (1 tablet per 100 ml) (Boehringer Mannheim, Indianapolis, Ind.) at a cell density of 20×10^6 cells per ml. After 5 minutes incubation on ice, cells were transferred to 4639 cell disruption bomb (Parr Instrument, Moline, Ill.) and applied with 1,500 psi of nitrogen for 30 minutes on ice. Large cellular debris was removed by centrifugation at 1,000×g. Cell membrane in the supernatant was sedimented at 100,000×g. The membrane was resuspended in the lysis buffer supplemented with 10% sucrose and stored at −80° C. Total protein concentration of the membrane was determined by BCA method from Pierce (Rockford, Ill.).
Human CXCR3 (N-delta 4) Scintillation Proximity Assay (SPA):
For each assay point, 2 μg of membrane was preincubated for 1 hr with 300 μg wheat germ agglutinin (WGA) coated SPA beads (Amersham, Arlington Heights, Ill.) in the binding buffer (50 mM HEPES, 1 mM CaCl2, 5 mM MgCl2, 125 mM NaCl, 0.002% NaN3, 1.0% BSA) at room temperature. The beads were spun down, washed once, resuspended in the binding buffer and transferred to a 96-well Isoplate (Wallac, Gaithersburg, Md.). 25 pM of [^125I] IP-10 with tested compounds in a series of titration were added to start the reaction. After 3 hr reaction at room temperature, the amount of [^125I] IP-10 bound to the SPA beads was determined with a Wallac 1450 Microbeta counter.
The Ki values for the various example compounds of the present invention are given in the afore-mentioned Table 1. From these values, it would be apparent to the skilled artisan that the compounds of the invention have excellent utility CXCR3 antagonists.
For orientation: Scintillation proximity formats need no separation of bound from free tracer.
`CC[C@H]1CN(c2nc(N)c(-c3nnc(C)o3)nc2Cl)CCN1C1CCN(Cc2ccc(Cl)cc2/C(N)=N\O)CC1` [Compound 1]: the half-inhibitory concentration (IC50) came out at 0.2 nM.

Staying with this assay, now noted: IC50 rating; Ba/F3-hCXCR3 (N-delta 4) membranes, 25 pM [125I] IP-10; read-out: IC50.
Turning to `CC[C@H]1CN(c2nc(N)c(-c3nnc(C)o3)nc2Cl)CCN1C1CCN(Cc2ccc(Cl)cc2/C(N)=N\O)CC1` [Compound 1], the IC50 was less than 25 nM.

With `CC[C@H]1CN(c2nc(N)c(-c3nnc(CO)o3)nc2Cl)CCN1C1CCN(Cc2ccc(Cl)cc2/C(N)=N\O)CC1` [Compound 2], the IC50 was less than 25 nM.

As for `CC[C@H]1CN(c2nc(N)c(-c3nnc(N)o3)nc2Cl)CCN1C1CCN(Cc2ccc(Cl)cc2F)CC1` [Compound 3], the IC50 was less than 25 nM.

For `CC[C@H]1CN(c2nc(N)c(-c3nnc(C)o3)nc2Cl)CCN1C1CCN(Cc2ccc(Cl)cc2)CC1` [Compound 4], the concentration for half-maximal inhibition (IC50) is less than 25 nM.

In the case of `CC[C@H]1CN(c2nc(N)c(-c3nnc(C)o3)nc2Cl)CCN1C1CCN([C@@H](CO)c2ccc(Cl)cc2)CC1` [Compound 5], the IC50 was less than 25 nM.

Regarding `CC[C@H]1CN(c2nc(N)c(-c3nnc(CO)o3)nc2Cl)CCN1C1CCN([C@@H](CO)c2ccc(Cl)cc2)CC1` [Compound 6], the half-maximal inhibitory concentration (IC50) was less than 25 nM.

Turning to `CC[C@H]1CN(c2nc(N)c(-c3nnc(C)o3)nc2Cl)CCN1C1CCN(Cc2ccc(Cl)c(OCCS(C)(=O)=O)c2)CC1` [Compound 7], the IC50 is less than 25 nM.

For `CC[C@H]1CN(c2nc(N)c(-c3nnc(C)o3)nc2Cl)CCN1C1CCN(Cc2ccc(Cl)cc2C(N)=O)CC1` [Compound 8], the concentration for half-maximal inhibition (IC50) was less than 25 nM.

On to `CC[C@H]1CN(c2nc(N)c(-c3nnc(N)o3)nc2Cl)CCN1C1CCN(Cc2ccc(C#N)cc2)CC1` [Compound 9], for which the IC50 is less than 25 nM.

In the case of `CCNc1nnc(-c2cnc(N3CCN(C4CCN(C(=O)c5ccc(Cl)nc5N)CC4)[C@@H](CC)C3)c(Cl)n2)o1` [Compound 10], the concentration for half-maximal inhibition (IC50) was less than 25 nM.

On to `CC[C@H]1CN(c2nc(N)c(-c3nnc(NC(C)C)o3)nc2Cl)CCN1C1CCN(C(=O)c2ccc(Cl)nc2N)CC1` [Compound 11], for which the half-inhibitory concentration (IC50) was less than 25 nM.

As for `CCCNc1nnc(-c2nc(Cl)c(N3CCN(C4CCN(C(=O)c5ccc(Cl)nc5N)CC4)[C@@H](CC)C3)nc2N)o1` [Compound 12], the IC50 was less than 25 nM.

`CCNc1nnc(-c2cnc(N3CCN(C4CCN(C(=O)c5ccc(Cl)nc5N)CC4)[C@@H](CC)C3)c(C)n2)s1` [Compound 13]: the IC50 is less than 25 nM.

For the molecule `CCNc1nnc(-c2nc(Cl)c(N3CCN(C4CCN(C(=O)c5ccc(Cl)nc5N)CC4)[C@@H](CC)C3)nc2N)o1` [Compound 14], the IC50 was less than 25 nM.

In the case of `CC[C@H]1CN(c2nc(N)c(-c3nnc(N)o3)nc2Cl)CCN1C1CCN(Cc2ccc(Cl)nc2)CC1` [Compound 15], the half-inhibitory concentration (IC50) was less than 25 nM.

As to `CCNc1nnc(-c2cnc(N3CCN(C4CCN(C(=O)c5ccc(Cl)nc5N)CC4)[C@@H](CC)C3)c(C)n2)o1` [Compound 16], the IC50 is less than 25 nM.

Consider `CC[C@H]1CN(c2nc(N)c(-c3nnc(N)o3)nc2Cl)CCN1C1CCN(C(=O)c2ccc(Cl)nc2N)CC1` [Compound 17], for which the IC50 is less than 25 nM.

In the case of `CCNc1nnc(-c2cnc(N3CCN(C4CCN(C(=O)c5ccc(Cl)nc5N)CC4)[C@@H](CC)C3)c(Cl)n2)s1` [Compound 18], the IC50 was less than 25 nM.

For the molecule `CC[C@H]1CN(c2nc(N)c(-c3nnc(C)o3)nc2Cl)CCN1C1CCN(C(=O)c2cc(F)c(Cl)nc2N)CC1` [Compound 19], the IC50 was less than 25 nM.

For `CCNc1nnc(-c2nc(Cl)c(N3CCN(C4CCN(C(=O)c5ccc(Cl)cc5)CC4)[C@@H](CC)C3)nc2N)o1` [Compound 20], the half-inhibitory concentration (IC50) was less than 25 nM.

Take `CC[C@H]1CN(c2ncc(-c3nnc(C)o3)nc2C)CCN1C1CCN(C(=O)c2ccc(Cl)cc2N)CC1` [Compound 21]: the IC50 was less than 25 nM.

Consider `CC[C@H]1CN(c2nc(N)c(-c3nnc(C)o3)nc2Cl)CCN1C1CCN(C(=O)c2ccc(Cl)nc2N)CC1` [Compound 23], for which the 50% inhibitory concentration (IC50) was less than 25 nM.

As to `CC[C@H]1CN(c2nc(N)c(C3=NCCN3)nc2Cl)CCN1C1CCN(C(=O)c2ccc(Cl)nc2N)CC1` [Compound 24], the IC50 is less than 25 nM.

On to `CC[C@H]1CN(c2nc(N)c(-c3nnc(CO)o3)nc2Cl)CCN1C1CCN(C(=O)c2ccc(Cl)nc2N)CC1` [Compound 25], for which the 50% inhibitory concentration (IC50) was less than 25 nM.

Regarding `CC[C@H]1CN(c2nc(N)c(-c3nnc(NCC(=O)OC)o3)nc2Cl)CCN1C1CCN(C(=O)c2ccc(Cl)nc2N)CC1` [Compound 26], the IC50 was less than 25 nM.

As to `CC[C@H]1CN(c2ncc(C3=NCCN3)nc2Cl)CCN1C1CCN(C(=O)c2ccc(Cl)nc2N)CC1` [Compound 27], the 50% inhibitory concentration (IC50) was less than 25 nM.

For `CC[C@H]1CN(c2nc(N)c(-c3nnc(C(C)(C)O)o3)nc2Cl)CCN1C1CCN(Cc2ccc(Cl)cc2)CC1` [Compound 28], the IC50 was less than 25 nM.

In the case of `CC[C@H]1CN(c2nc(N)c(-c3nnc(N(C)C)o3)nc2Cl)CCN1C1CCN(Cc2ccc(Cl)cc2)CC1` [Compound 29], the 50% inhibitory concentration (IC50) is less than 25 nM.

On to `CC[C@H]1CN(c2nc(N)c(-c3nnc(N)[nH]3)nc2Cl)CCN1C1CCN(C(=O)c2ccc(Cl)nc2N)CC1` [Compound 30], for which the half-inhibitory concentration (IC50) was less than 25 nM.

In the case of `CC[C@H]1CN(c2nc(N)c(-c3nnc(C)o3)nc2Cl)CCN1C1CCN(C(=O)c2cc(F)c(Cl)nc2Cl)CC1` [Compound 31], the concentration for half-maximal inhibition (IC50) was less than 25 nM.

Turning to `CC[C@H]1CN(c2ncc(-c3nnc(C)o3)nc2Cl)CCN1C1CCN(C(=O)c2ccc(Cl)cc2)CC1` [Compound 32], the IC50 is less than 25 nM.

Consider `CC[C@H]1CN(c2ncc(-c3nnc(C)o3)nc2Cl)CCN1C1CCN(C(=O)c2cc(F)c(Cl)nc2Cl)CC1` [Compound 33], for which the IC50 was less than 25 nM.

As for `CC[C@H]1CN(c2nc(N)c(-c3nnc(CN)o3)nc2Cl)CCN1C1CCN(C(=O)c2ccc(Cl)nc2N)CC1` [Compound 34], the IC50 was less than 25 nM.

In the case of `CC[C@H]1CN(c2ncc(-c3nnc(C)o3)nc2C)CCN1C1CCN(C(=O)c2ccc(Cl)nc2N)CC1` [Compound 35], the half-inhibitory concentration (IC50) was less than 25 nM.

In the case of `CC[C@H]1CN(c2nc(N)c(-c3nnc(N)o3)nc2Cl)CCN1C1CCN(C(=O)c2ccc(Cl)cc2)CC1` [Compound 36], the concentration for half-maximal inhibition (IC50) was less than 25 nM.

Consider `CC[C@H]1CN(c2ncc(-c3nnc(C)[nH]3)nc2Cl)CCN1C1CCN(C(=O)c2ccc(Cl)nc2N)CC1` [Compound 37], for which the IC50 was less than 25 nM.

In the case of `CC[C@H]1CN(c2ncc(-c3nc[nH]n3)nc2C)CCN1C1CCN(C(=O)c2ccc(Cl)nc2N)CC1` [Compound 38], the IC50 was less than 25 nM.

In the case of `CC[C@H]1CN(c2nc(N)c(-c3nnc(C(N)=O)o3)nc2Cl)CCN1C1CCN(C(=O)c2ccc(Cl)nc2N)CC1` [Compound 40], the half-inhibitory concentration (IC50) was less than 25 nM.

In the case of `CC[C@H]1CN(c2nc(N)c(-c3nnc(NCCO)o3)nc2Cl)CCN1C1CCN(C(=O)c2ccc(Cl)nc2N)CC1` [Compound 41], the 50% inhibitory concentration (IC50) is less than 25 nM.

For the molecule `CCNC(=O)Nc1nnc(-c2nc(Cl)c(N3CCN(C4CCN(C(=O)c5ccc(Cl)nc5N)CC4)[C@@H](CC)C3)nc2N)o1` [Compound 42], the IC50 was less than 25 nM.

As to `CC[C@H]1CN(c2nc(N)c(-c3nnc(C)o3)nc2Cl)CCN1C1CCN(C(=O)c2ccc(Cl)cc2)CC1` [Compound 43], the half-maximal inhibitory concentration (IC50) was less than 25 nM.

On to `CC[C@H]1CN(c2ncc(-c3n[nH]c(N)n3)nc2C)CCN1C1CCN(C(=O)c2ccc(Cl)nc2N)CC1` [Compound 44], for which the IC50 is less than 25 nM.

`CC[C@H]1CN(c2nc(N)c(-c3nnc(CO)o3)nc2Cl)CCN1C1CCN(Cc2ccc(Cl)cc2C#N)CC1` [Compound 45]: the IC50 was less than 25 nM.
